Legend:
[1] = system: mouse monocytes-macrophages cell line J774A.1; experiment: Cell tests in the mouse macrophage cell line J774A.1: photodynamic activity, XTT cell viability; assay type: cell-based; conditions: 2 or 10 μM photosensitizer, 24 h incubation, 652 nm diode laser, 50 J/cm^2
Procedure: (§1) The mouse monocytes-macrophages cell line J774A.1 and the rabbit synoviocyte cell line HIG-82 were grown in DMEM (cc-pro GmbH) supplemented with 10% heat-inactivated fetal calf serum (FCS, cc-pro GmbH), 1% penicillin (10000 IU) and streptomycin (10 000 μg/ml, cc-pro GmbH). Cells were kept as a monolayer culture in a humidified incubator (5% CO2 in air at 37° C.).
(§2) A photosensitizer stock solution (2 mM) was performed in DMSO and was kept in the dark at 4° C. Further dilution was performed in RPMI 1640 medium without phenol red supplemented with 10% FCS to reach a final photosensitizer concentration of 2 or 10 μM, respectively.
(§3) 2·10^4 cells/ml were seeded in micro plates (2·10^5 cells/well). Cells were incubated with fresh medium (RPMI without phenol red) containing 10% FCS with 2 or 10 μM of the photosensitizer for 24 h before light exposure. […]
(§4) The cell viability was assessed by the XTT assay. […]
(§5) The absorbance of the samples was measured with a spectrophotometer (Bio-Kinetics Reader EL312 e; Bio-Tek Instruments Inc.) at a wavelength of 490 nm. In order to measure reference absorbance (to measure non-specific readings) a wavelength of 630-690 nm was used.

[2] = system: human colon adenocarcinoma cell line HT29; experiment: Cell tests in the HT 29 cell line: photosensitizing activity, XTT cell viability; assay type: cell-based
Procedure: The photosensitizing activity was determined in the human colon adenocarcinoma cell line HT29. The HT29 cell lines were grown in DMEM (cc-pro GmbH) supplemented with 10% heat-inactivated fetal calf serum (FCS, cc-pro GmbH), 1% penicillin (10000 IU) and streptomycin (10000 μg/ml, cc-pro GmbH). Cells were kept as a monolayer culture in a humidified incubator (5% CO2 in air at 37° C.
as §2, §3, §4, §5

[3] = system: rabbit synoviocyte cell line HIG-82; experiment: Cell tests in the rabbit synoviocyte cell line HIG-82: photodynamic activity, XTT cell viability; assay type: cell-based; conditions: HIG82, 2 or 10 μM photosensitizer, 24 h incubation, 652 nm diode laser, 50 J/cm^2
Procedure: as §1, §2, §3, §4, §5

Molecule	melting point [°C]	photodynamic activity [1]	photodynamic activity [3]	further results
5,15-Bis-(4-carboxyphenyl)-10,20-dihexyl-7,8-dihydroxy-7,8-chlorin		very strong photodynamic activity	very strong photodynamic activity	photodynamic activity (photo toxicity) ([2]; HT29, 2 or 10 μM photosensitizer, 24 h incubation, 652 nm diode laser, 100 mW/cm^2 (50 J/cm^2), XTT 24 h after irradiation): very strong photodynamic activity; dark toxicity (DT) and photo toxicity ([2]; HT 29 cell line, cell culture experiments (FIG. 4A)): excellent properties
CCCCCCc1c2nc(c(CCCCCC)c3ccc([nH]3)c(-c3ccc(C(=O)OC)cc3)c3nc(c(-c4ccc(C(=O)OC)cc4)c4ccc1[nH]4)C=C3)C=C2 [5,10-Dihexyl-15,20-bis-(4-methoxycarbonylphenyl)-porphyrin]	131			
CCCCCCc1c2nc(c(-c3ccc(C(=O)O)cc3)c3ccc([nH]3)c(-c3ccc(C(=O)O)cc3)c3nc(c(CCCCCC)c4ccc1[nH]4)C(O)C3O)C=C2 (stereo not shown) [5,20-Bis-(4-carboxyphenyl)-10,15-dihexyl-7,8-dihydroxy-7,8-chlorin]		very strong photodynamic activity	very strong photodynamic activity	

Continued, in another order:

melting point [°C]	Molecule	photodynamic activity [1]	photodynamic activity [3]	further results
113	CCCCCCCCCCCCCc1c2nc(c(CCCCCCCCCCCCC)c3ccc([nH]3)c(-c3cccc(O)c3)c3nc(c(-c4cccc(O)c4)c4ccc1[nH]4)C=C3)C=C2 [5,10-Bis-(3-hydroxyphenyl)-15,20-bis-(tridecyl)-porphyrin]			
133	CCCCCCCCCCCCCc1c2nc(c(-c3cccc(O)c3)c3ccc([nH]3)c(CCCCCCCCCCCCC)c3nc(c(-c4cccc(O)c4)c4ccc1[nH]4)C=C3)C=C2 [5,15-Bis-(3-hydroxyphenyl)-10,20-bis-(tridecyl)-porphyrin]			
238	CCCCCCc1c2nc(c(-c3ccc(C(=O)OC)cc3)c3ccc([nH]3)c(CCCCCC)c3nc(c(-c4ccc(C(=O)OC)cc4)c4ccc1[nH]4)C=C3)C=C2 [5,15-Dihexyl-10,20-bis-(4-methoxycarbonylphenyl)-porphyrin]			

Reference: US9315510B2, “Method and application of unsymmetrically meso-substituted porphyrins and chlorins for PDT” (Biolitec Pharma Marketing LTD, priority 2008, dated 2016)
